One assay relates to M tb H37Rv. Briefly: MIC determination against M tb H37Rv (green fluorescent protein reporter assay; MIC-MABA). Format: cell-based, Mycobacterium tuberculosis. As to conditions: Mycobacterium tuberculosis, H37RV, 240 h, read-out: M. TB H37Rv: MIC-MABA: MIC, M. tb H37Rv; 7H9 broth; 10 days exposure; MIC = lowest concentration inhibiting fluorescence by 90%. Background: Reporter assays use an easily measured gene product as a stand-in for the process of interest.

In another assay the test system is Mycobacterium abscessus. As to the kind of experiment: MIC against Mycobacterium abscessus (Mab_ATCC, MHII broth). Format: cell-based. The conditions noted are these: Mycobacteroides abscessus; Mycobacterium abscessus ATCC strain; Mueller-Hinton broth (MHII). The text has this:
Key for Tables: MIC: Minimum Inhibitory Concentration; MABA: microplate-based Alamar Blue assay; Mab: Mycobacterium abscessus; ATCC: American Type Culture Collection; and MHII: Mueller-Hinton broth.

Values after ≈ are worked out from the molar mass of the structure shown.

18 compounds from US20230002372A1, “AZAINDOLE CARBOXAMIDE COMPOUNDS FOR THE TREATMENT OF MYCOBACTERIAL INFECTIONS” (THE GLOBAL ALLIANCE FOR TB DRUG DEVELOPMENT, INC., priority 2019, published 2023) can be followed below.

A word on the MIC: it is the smallest concentration in the dilution series that meets the test's criterion for growth inhibition. `C[Si]1(C)CCC(NC(=O)c2cc3ccc(OC4CC4)nc3[nH]2)CC1` [MPL-464, 6-(cyclopropoxy)-N-(1,1-dimethylsilinan-4-yl)-1H-pyrrolo[2,3-b]pyridine-2-carboxamide]: the MIC is 0.124 µg/mL (≈ 0.361 µM) with M tb H37Rv and 1 µg/mL (≈ 2.91 µM) against Mycobacterium abscessus.

Take `Cc1nc2[nH]c(C(=O)N[C@@H]3CCC[Si](C)(C)CC3)cc2c(F)c1Cl` (single isomer, unassigned) [MPL-316A]: the minimal inhibitory concentration (MIC) with M tb H37Rv amounted to 0.014 µg/mL (≈ 0.0381 µM); with Mycobacterium abscessus, 0.19 µg/mL (≈ 0.516 µM).

As to `Cc1nc2[nH]c(C(=O)NC3CC[Si](C)(C)CC3)cc2c(C)c1Cl` [MPL-239, 5-chloro-N-(1,1-dimethylsilinan-4-yl)-4,6-dimethyl-1H-pyrrolo[2,3-b]pyridine-2-carboxamide], the MIC in the assay with M tb H37Rv worked out at 0.0078 µg/mL (≈ 0.0223 µM); with Mycobacterium abscessus, 16 µg/mL (≈ 45.7 µM).

For `Cc1nc2[nH]c(C(=O)N[C@H]3CC[Si](C)(C)C3)cc2c(F)c1F` (single isomer, unassigned) [MPL-295B], the MIC was below 0.004 µg/mL in the assay on M tb H37Rv and 0.12 µg/mL (≈ 0.371 µM) in the assay with Mycobacterium abscessus.

As to `Cc1nc2[nH]c(C(=O)NC3CC[Si](C)(C)C3)cc2c(F)c1F` (stereo not drawn) [MPL-295, N-(1,1-dimethylsilolan-3-yl)-4,5-difluoro-6-methyl-1H-pyrrolo[2,3-b]pyridine-2-carboxamide], the MIC with M tb H37Rv was 0.024 µg/mL (≈ 0.0742 µM); against Mycobacterium abscessus, 0.28 µg/mL (≈ 0.866 µM).

Turning to `Cc1cc(Cl)c2cc(C(=O)NC3CCC[Si](C)(C)CC3)[nH]c2n1` (stereo not drawn) [MPL-274, 4-chloro-N-(1,1-dimethylsilepan-4-yl)-6-methyl-1H-pyrrolo[2,3-b]pyridine-2-carboxamide], the MIC in the assay on M tb H37Rv amounted to 0.01 µg/mL (≈ 0.0286 µM); in the assay on Mycobacterium abscessus, 0.75 µg/mL (≈ 2.14 µM).

As for `COc1cc(F)c2cc(C(=O)NC3CC[Si](C)(C)CC3)[nH]c2n1` [MPL-468, N-(1,1-dimethylsilinan-4-yl)-4-fluoro-6-methoxy-1H-pyrrolo[2,3-b]pyridine-2-carboxamide], the figures for the MIC in the assay with M tb H37Rv and with Mycobacterium abscessus were 0.023 µg/mL (≈ 0.0686 µM) and 0.12 µg/mL (≈ 0.358 µM), respectively.

As for `COc1ccc2cc(C(=O)NC3CC[Si](C)(C)CC3)[nH]c2n1` [MPL-387, N-(1,1-dimethylsilinan-4-yl)-6-methoxy-1H-pyrrolo[2,3-b]pyridine-2-carboxamide], the MIC with M tb H37Rv amounted to 0.163 µg/mL (≈ 0.513 µM); in the assay with Mycobacterium abscessus it was 0.5 µg/mL (≈ 1.57 µM).

As for `COc1ccc2cc(C(=O)NC3CCC(C)(C)CC3)[nH]c2n1` [MPL-453, N-(4,4-dimethylcyclohexyl)-6-methoxy-1H-pyrrolo[2,3-b]pyridine-2-carboxamide], the results for the MIC with M tb H37Rv and in the assay on Mycobacterium abscessus were 0.284 µg/mL (≈ 0.942 µM) and 0.5 µg/mL (≈ 1.66 µM), respectively.

Turning to `Cc1cc(Cl)c2cc(C(=O)NC3CC[Si](C)(C)CC3)[nH]c2n1` [MPL-208, 4-chloro-N-(1,1-dimethylsilinan-4-yl)-6-methyl-1H-pyrrolo[2,3-b]pyridine-2-carboxamide], the MIC in the assay with M tb H37Rv amounted to 0.0045 µg/mL (≈ 0.0134 µM); in the assay on Mycobacterium abscessus, 1 µg/mL (≈ 2.98 µM).

For `Cc1nc2[nH]c(C(=O)NC3CCC(C)(C)CC3)cc2c(F)c1F` [MPL-067, N-(4,4-dimethylcyclohexyl)-4,5-difluoro-6-methyl-1H-pyrrolo[2,3-b]pyridine-2-carboxamide], the results for the MIC with M tb H37Rv and in the assay on Mycobacterium abscessus were 0.01 µg/mL (≈ 0.0311 µM) and 0.25 µg/mL (≈ 0.778 µM), respectively.

Turning to `C[C@@H]1[C@@H](NC(=O)c2cc3c(Br)ccnc3[nH]2)C[C@H]2C[C@@H]1C2(C)C` [MPL-012, 4-bromo-N-[(1S,2S,3S,5R)-2,6,6-trimethylnorpinan-3-yl]-1H-pyrrolo[2,3-b]pyridine-2-carboxamide], the MIC came to 0.048 µg/mL (≈ 0.128 µM) in the assay on M tb H37Rv and 4 µg/mL (≈ 10.6 µM) against Mycobacterium abscessus.

For the compound `Cc1cc(F)c2cc(C(=O)NC3CCC(C)(C)CC3)[nH]c2n1` [MPL-118, N-(4,4-dimethylcyclohexyl)-4-fluoro-6-methyl-1H-pyrrolo[2,3-b]pyridine-2-carboxamide], the MIC in the assay with M tb H37Rv amounted to 0.017 µg/mL (≈ 0.056 µM); in the assay with Mycobacterium abscessus, 1 µg/mL (≈ 3.3 µM).

`Cc1nc2[nH]c(C(=O)NC3CC[Si](C)(C)CC3)cc2c(F)c1C` [MPL-471, N-(1,1-dimethylsilinan-4-yl)-4-fluoro-5,6-dimethyl-1H-pyrrolo[2,3-b]pyridine-2-carboxamide]: the MIC amounted to 0.069 µg/mL (≈ 0.207 µM) in the assay with M tb H37Rv and 1 µg/mL (≈ 3 µM) in the assay with Mycobacterium abscessus.

For `O=C(NC1CCCCCCC1)c1cc2c(Cl)cncc2[nH]1` [MPL-034, 4-chloro-N-cyclooctyl-1H-pyrrolo[2,3-c]pyridine-2-carboxamide], the results for the MIC in the assay with M tb H37Rv and in the assay with Mycobacterium abscessus were 0.25 µg/mL (≈ 0.818 µM) and 2 µg/mL (≈ 6.54 µM), respectively.

As for `COc1ccc2cc(C(=O)N[C@H]3CCC[Si](C)(C)CC3)[nH]c2n1` (single isomer, unassigned) [MPL-466A], the MIC is 0.042 µg/mL (≈ 0.127 µM) in the assay on M tb H37Rv and 0.25 µg/mL (≈ 0.754 µM) with Mycobacterium abscessus.

In the case of `Cc1nc2[nH]c(C(=O)NC3CCC[Si](C)(C)CC3)cc2c(F)c1Cl` (stereo not drawn) [MPL-316, 5-chloro-N-(1,1-dimethylsilepan-4-yl)-4-fluoro-6-methyl-1H-pyrrolo[2,3-b]pyridine-2-carboxamide], the MIC in the assay on M tb H37Rv came out at 0.015 µg/mL (≈ 0.0408 µM); against Mycobacterium abscessus, 0.16 µg/mL (≈ 0.435 µM).

For the compound `Cc1cc(Cl)c2cc(C(=O)NC3CC4CCC3(C)C4(C)C)[nH]c2n1` (stereo not drawn) [MPL-195, 4-chloro-6-methyl-N-(1,7,7-trimethylnorbornan-2-yl)-1H-pyrrolo[2,3-b]pyridine-2-carboxamide], the MIC was 0.014 µg/mL (≈ 0.0405 µM) in the assay on M tb H37Rv and 2 µg/mL (≈ 5.78 µM) in the assay with Mycobacterium abscessus.
